Laboratory results reported in patent publication US10294226B2, “Small molecule inhibitors of the JAK family of kinases” (Janssen Pharmaceutica NV, priority 2016, dated 2019).
In brackets after ≈: the same amount, converted by molar mass. Read-outs that look alike come from different tables or passages of the source.

Tests used:
[1] = In vivo oral (p.o.) dosing, plasma and colon concentrations (Protocols 1 and 2); set-up: species or system female C57BL/6 mice; settings: mice, 25 mg/kg p.o.
Description: These protocols are described below under the heading In vivo Studies. Three non-fasted female C57BL/6 mice were orally administered test compound at a dose of 25 mg/kg p.o. as a solution in 20% hydroxypropyl-beta-cyclodextrin (HPβCD) at a dose volume of 5 mL/kg. Blood samples were collected at 0.5, 2, and 4 h post dose via retro-orbital bleed or venipuncture of the dorsal metatarsal vein. Blood samples were collected into tubes containing anticoagulant (Heparin-Na) and placed on wet ice. […] Colon samples were collected at 4 h post dose. […] The colon was further washed by putting it in 5 mL of saline and shaken for 5 seconds. The colon sample was then patted dry, weighed, and homogenized as 1 part tissue (g) to 4 parts HPLC grade water (mL). Concentrations of the compound in plasma and colon homogenate were determined using a qualified liquid chromatography-triple quadrupole mass spectrometry (LC-MS/MS) method. […] Three non-fasted female C57BL/6 mice were orally administered test compound at a dose of 25 mg/kg p.o. as a solution in 20% HPβCD at a dose volume of 5 mL/kg. Blood samples were collected at 0.5, 2, and 4 h post dose via retro-orbital bleed or dorsal metatarsal vein. Blood samples were collected into tubes containing anticoagulant (Heparin-Na) and placed on wet ice. […] Colon samples were collected at 4 h post dose. […] The colon was further washed by putting it in 5 mL of saline and shaken for 5 seconds. The colon sample was then patted dry, weighed, and homogenized as 1 part tissue (g) to 4 parts HPLC grade water (mL). Concentrations of the compound in plasma and colon homogenate were determined using a qualified liquid chromatography-triple quadrupole mass spectrometry (LC-MS/MS) method.

[2] = MDCK-MDR1 permeability assay; format: in vitro ADME; settings: MDCK-MDR1, pH 7.4, @ 5 μM, apical to basolateral, with P-gp inhibitor elacridar (2 μM); read-out: MDCK-MDR1 P^eapp(A-B)
Description: (§5) Permeability measurements were conducted according to the Cyprotex protocol using the MDCK-MDR1 cell line obtained from the NIH (Rockville, Md., USA). […] The cells in this assay form a cohesive sheet of a single cell layer filing the surface area of the culture dish, also known as a confluent monolayer, and on day four the test compound was added to the apical side of the membrane and the transport of the compound across the monolayer was monitored over a time period of 60 min.
(§6) Test compounds were dissolved in DMSO at a concentration of 10 mM. The dosing solutions were prepared by diluting test compound with assay buffer (Hanks Balanced Salt Solution), pH 7.4, at a final concentration of 5 μM. For assessment of apical to basolateral (“A-B”) permeability, buffer was removed from the apical compartment and replaced with test compound dosing solution with or without the permeability glycoprotein (“PgP”, “P-gP”, “Pgp” or “P-gp”) inhibitor elacridar (2 μM). For assessment of basolateral to apical (“B-A”) permeability, buffer was removed from the companion plate and replaced with test compound dosing solution. Incubations were carried out in duplicate at 37° C. in an atmosphere of 5% CO2 with a relative humidity of 95%. […] After incubation for 60 minutes, apical and basolateral samples were diluted and test compounds quantified by LC/MS/MS using an 8-point calibration in the range 0.0039 to 3 μM with appropriate dilution of the samples (receiver dilution factor=1; donor and C0 dilution factor=10). The permeability coefficient (Papp) for each compound was calculated from the following equation: Papp=(dQ/dt)/(C0×S), where dQ/dt is the rate of permeation of the drug across the cells, C0 is the donor compartment concentration at time zero, and S is the area of the cell monolayer.
(§7) The percent recovery was measured for all incubation conditions.
(§8) Papp(A-B) gives an indication of permeation extent across the cells in this assay, which is envisaged to model the transcellular transport across Pgp-expressing cells, such as Pgp-expressing gastrointestinal tract cells.
(§9) The integrity of each monolayer was monitored by examining the permeation of lucifer yellow by fluorimetric analysis.

P-gp (MDR1) = assay: MDCK-MDR1 permeability assay; format: in vitro ADME; settings: dog; for Papp A→B at 60 min, 5 μM: apical to basolateral; for Papp B→A at 60 min, 5 μM: MDCK-MDR1, pH 7.4, basolateral to apical; for efflux ratio at 60 min, 5 μM: pH 7.4, MDCK-MDR1, @ 5 μM, read-out: Papp(B-A)/Papp(A-B) efflux ratio
Description: as §5, §6, §7, §8, §9

physchem = settings: thermodynamic from solid
JAK1-JH1JH2 = JAK1-JH1JH2 (Homo sapiens (Human), UniProt P23458); assay: Enzymatic inhibition assay (HTMS); format: biochemical; settings: 12.5 μM ATP; read-out: JAK1_JH1JH2 IC50
JAK1-JH1JH2, sequence (P23458 574-1154): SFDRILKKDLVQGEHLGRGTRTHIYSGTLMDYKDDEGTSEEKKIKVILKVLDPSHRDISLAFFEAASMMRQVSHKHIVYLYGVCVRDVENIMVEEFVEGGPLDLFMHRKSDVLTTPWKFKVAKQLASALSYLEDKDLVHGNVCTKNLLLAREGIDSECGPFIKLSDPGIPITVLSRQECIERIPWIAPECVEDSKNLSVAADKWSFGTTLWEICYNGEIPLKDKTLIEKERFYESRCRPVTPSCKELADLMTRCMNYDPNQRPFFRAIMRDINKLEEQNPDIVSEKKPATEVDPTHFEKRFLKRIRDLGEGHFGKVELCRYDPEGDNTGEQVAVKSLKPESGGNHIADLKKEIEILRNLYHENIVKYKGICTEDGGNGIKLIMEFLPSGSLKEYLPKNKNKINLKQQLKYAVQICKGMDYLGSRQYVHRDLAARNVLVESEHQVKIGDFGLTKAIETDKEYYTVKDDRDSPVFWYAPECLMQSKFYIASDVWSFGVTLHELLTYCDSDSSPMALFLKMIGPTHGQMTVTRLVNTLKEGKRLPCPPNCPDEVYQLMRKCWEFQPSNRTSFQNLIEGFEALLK
Description: (§1) JAK1-JH1JH2 (574-1154 with a His-GST Tag and a C-terminal tev (ENLYFQ-G) cleavage site), JAK3-JH1JH2 (512-1124 with a GST Tag and a C-terminal tev (ENLYFQ-G) cleavage site), and Tyk2-JH1JH2 (8H_tev_580-1182-C936A-C1142A with a C-terminal tev (ENLYFQ-G) cleavage site) were purified internally. […] LC/MS grade water and acetonitrile (ACN), were purchased from HoneyWell, Burdick & Jackson (Muskegon, Mich., USA). Dimethylsulfoxide 99.8% (DMSO) and trifluoroacetic acid 99.5% (TFA) were purchased from EMD Chemical (Gibbstown, N.J., USA). Adenosine triphosphate (ATP), 4-morpholinepropanesulfonic acid (MOPS), magnesium chloride (MgCl2), ethylenediaminetetraacetic acid (EDTA), dithiothreitol (DTT), formic acid>95% (FA) and Tween-20 were purchased from Sigma (St Louis, Mo., USA). 384-well polypropylene plates, Cat#781280 were purchased from Greiner (Monroe, N.C.), RapidFire™ cartridge A C4 Column (Agilent Technologies, Santa Clara, Calif.).
(§2) The HTMS experiments were performed in positive ionization mode on a RapidFire 300 instrument (Agilent Technologies, Santa Clara, Calif.), coupled with an ABSiex QTrap 4000 system with an Electrospray Ionization source (RF-MS) (Concord, ON, Canada). […] The entire system was operated using the RapidFire software interfaced with Analyst software for the mass spectrometer.
(§3) 11-point dosing series were made for each compound by serially diluting 1:3 or 1:4 in DMSO, with point 12 being a DMSO control. From the serial dilution plates, sample was transferred to a 384 wells assay plate (#781280, Greiner, Monroe, N.C.) using Labcyte Echo (Sunnyvale, Calif.), or Biosero ATS (San Diego, Calif.). The compounds were tested in duplicate. Column 12 was used for positive controls, and column 24 contained negative controls with no enzyme added. A compound from our internal collection, with inhibitory activity for JAK isoforms, was used as a reference compound. The final concentration of DMSO was ≤0.25% in a 20 μL reaction. The enzyme reaction was initiated by the addition of 10 μL of enzyme and ATP mixture to 10 μL of substrate solution prepared in reaction buffer (50 mM MOPS pH 7.5, 10 mM MgCl2, 1 mM EDTA, 2 mM DTT, 0.002% Tween-20). The Tyk2 enzyme was pre-incubated with 2 mM ATP for 30 min prior to the reaction initiation. Immediately after the addition of the enzyme to the reaction mixture, the plate was centrifuged at 1000 rpm for 1 minute and incubated at 25° C. for 45 minutes for JAK3 and 90 minutes for JAK1, JAK2 and Tyk2. The reaction was quenched by the addition of 20 μL of 0.5% TFA containing 0.15 μM of internal standard peptide using Multidrop Combi reagent dispenser (Thermo Scientific, Waltham, Mass.). […] After the quench, the assay plate was centrifuged at 3000 rpm for 3 minutes and sealed with pierceable aluminum foil (Cat#06644-001, Agilent) using a PlateLoc (Agilent Technologies, Santa Clara, Calif.). The plates then were transferred on to the RapidFire for the MS analysis. Compound inhibition was assessed by a decrease of the phosphorylated product levels in sample wells compared to the non-inhibited enzyme reaction.
(§4) The sample analysis on the RapidFire was performed using a mobile phase A1 consisting of Water/TFA/FA (100:0.01:0.1, v/v/v), a mobile phase B1 consisting of ACN/Water/TFA/FA (80:20:0.01:0.1, v/v/v). […] The samples were aspirated directly from the 384-well assay plate and delivered onto RF-MS microscale solid-phase C4 extraction cartridge (Type A). The undesired component such as salt, cofactor, detergent and large protein were washed out and the retained analytes (substrate, product and IS) were coeluted directly onto the AB Siex Qtrap 4000 system.

JAK3-JH1JH2 = JAK3-JH1JH2 (Homo sapiens (Human), UniProt P52333); assay: Enzymatic inhibition assay (HTMS); format: biochemical; settings: 150 μM ATP; read-out: JAK3_I_JH1JH2 IC50
JAK3-JH1JH2, sequence (P52333 512-1124): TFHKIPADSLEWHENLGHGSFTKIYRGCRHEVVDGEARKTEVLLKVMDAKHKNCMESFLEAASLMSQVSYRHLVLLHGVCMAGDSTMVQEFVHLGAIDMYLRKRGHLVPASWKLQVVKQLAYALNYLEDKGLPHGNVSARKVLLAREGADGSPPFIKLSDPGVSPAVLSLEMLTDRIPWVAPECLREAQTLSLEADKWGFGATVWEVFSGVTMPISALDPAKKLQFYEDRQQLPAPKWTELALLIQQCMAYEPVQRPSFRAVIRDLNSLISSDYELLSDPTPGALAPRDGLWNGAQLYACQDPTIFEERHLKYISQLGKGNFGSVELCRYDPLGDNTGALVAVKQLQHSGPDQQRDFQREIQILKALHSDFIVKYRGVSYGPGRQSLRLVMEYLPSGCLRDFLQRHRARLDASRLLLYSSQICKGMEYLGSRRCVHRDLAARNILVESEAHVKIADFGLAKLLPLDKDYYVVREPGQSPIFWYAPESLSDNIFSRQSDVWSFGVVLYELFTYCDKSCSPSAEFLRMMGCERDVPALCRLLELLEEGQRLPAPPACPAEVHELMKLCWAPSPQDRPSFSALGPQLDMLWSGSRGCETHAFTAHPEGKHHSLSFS
Description: as §1, §2, §3, §4

Tyk2-JH1JH2 = Tyk2-JH1JH2 (Homo sapiens (Human), UniProt P29597, C1142A/C936A); assay: Enzymatic inhibition assay (HTMS); format: biochemical; settings: 50 μM ATP; read-out: Tyk2_I_JH1JH2 IC50
Tyk2-JH1JH2, sequence (P29597 580-1182 C936A/C1142A): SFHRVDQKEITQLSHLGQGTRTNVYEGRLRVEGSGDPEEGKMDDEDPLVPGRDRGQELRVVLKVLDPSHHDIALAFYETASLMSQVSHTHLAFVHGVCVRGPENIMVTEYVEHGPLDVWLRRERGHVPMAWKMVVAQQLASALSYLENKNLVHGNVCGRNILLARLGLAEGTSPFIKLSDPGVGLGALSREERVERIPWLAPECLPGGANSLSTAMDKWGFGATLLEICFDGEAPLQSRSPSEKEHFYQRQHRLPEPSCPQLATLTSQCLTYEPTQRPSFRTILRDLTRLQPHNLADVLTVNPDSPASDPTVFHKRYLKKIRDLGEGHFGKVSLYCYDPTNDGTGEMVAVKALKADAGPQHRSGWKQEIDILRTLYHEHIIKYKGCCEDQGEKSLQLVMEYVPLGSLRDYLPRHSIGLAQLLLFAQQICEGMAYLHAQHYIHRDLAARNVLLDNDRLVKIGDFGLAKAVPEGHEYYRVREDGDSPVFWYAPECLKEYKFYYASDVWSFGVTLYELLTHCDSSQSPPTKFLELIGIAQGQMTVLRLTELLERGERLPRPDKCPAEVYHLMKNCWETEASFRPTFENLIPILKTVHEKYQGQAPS
Description: as §1, §2, §3, §4

IL-2 pSTAT5 (JAK1/JAK3) = IL-2 pSTAT5 (JAK1/JAK3) cellular assay, AlphaLISA in PBMCs; format: cell-based; settings: PBMC, IL-2 5 ng/mL
Description: The AlphaLISA assay (based on Alpha Technology from PerkinElmer) was performed by first plating freshly thawed PBMCs (Biological Specialty Corporation) in 384-well plates at 30,000 cells per 4 μL per well in HBSS (Hanks' Balanced Salt Solution) containing 0.1% IgG (immunoglobulin G)-free, protease-free BSA (bovine serum albumin) (Jackson ImmunoResearch Cat. No. 001-000-161). The cells were then treated with 2 μL/well of compounds diluted in DMSO at half-log titrated concentrations, with a highest test concentration of 10 μM and 0.5% final DMSO concentration, for thirty minutes at 37° C. […] The cellular reactions were terminated by the addition of 2 μL/well of lysis buffer (PerkinElmer Cat. No. ALSU-PST5-A10K) followed by an incubation of five minutes at room temperature. 5 μL/well of acceptor mix (PerkinElmer Cat. No. ALSU-PST5-A10K) was added to the cells and incubated in the dark for one hour at room temperature. Then, 5 μL/well of donor mix (PerkinElmer Cat. No. ALSU-PST5-A10K) was added to the cells and incubated in the dark overnight at room temperature. Finally, the plates were read on a PerkinElmer EnVision for detection of the time-resolved fluorescence signal. The percentage of IL-2-dependent pSTAT5 inhibition was determined at the compound test concentrations; and for each compound, a dose curve was generated and the IC50 was calculated. Compound IC50 was calculated by nonlinear regression, sigmoidal dose response analysis of the half-log dilution titration curve of the compound concentration vs. Alpha signal. The acronym “Alpha” stands for amplified luminescent proximity homogeneous assay; the Alpha signal is a luminescent/fluorescent signal.

IFNα pSTAT4 (JAK1/TYK2) = IFNα pSTAT4 (JAK1/TYK2) cellular assay, AlphaLISA in PBMCs; format: cell-based; settings: PBMC, IFNα 4 ng/mL
Description: The AlphaLISA assay (based on Alpha Technology from PerkinElmer) was performed by first plating freshly thawed PBMCs (Biological Specialty Corporation) in 384-well plates at 100,000 cells per 6 μL per well in DMEM (Dulbecco's Modified Eagle Medium) containing 10% FBS (fetal bovine serum) and 1,000 I.U./mL penicillin and 1,000 μg/mL streptomycin. The cells were then treated with 2 μL/well of compounds diluted in DMSO at half-log titrated concentrations, with a highest test concentration of 10 μM and 0.5% final DMSO concentration, for thirty minutes at 37° C. Next, the cells were stimulated with 2 μL/well of IFNα (PBL Assay Science Cat. No. 11101-2) at 4 ng/mL for thirty minutes at 37° C. The cellular reactions were terminated by the addition of 2 μL/well of lysis buffer (PerkinElmer Cat. No. ALSU-PST4-A10K) followed by an incubation of five minutes at room temperature. 4 μL/well of acceptor mix (PerkinElmer Cat. No. ALSU-PST4-A10K) was added to the cells and incubated in the dark for one hour at room temperature. Then, 4 μL/well of donor mix (PerkinElmer Cat. No. ALSU-PST4-A10K) was added to the cells and incubated in the dark overnight at room temperature. Finally, the plates were read on a PerkinElmer EnVision for detection of the time-resolved fluorescence signal. The percentage of IFNα-dependent pSTAT4 inhibition was determined at the compound test concentrations; and for each compound, a dose curve was generated and the IC50 was calculated. Compound IC50 was calculated by nonlinear regression, sigmoidal dose response analysis of the half-log dilution titration curve of the compound concentration vs. Alpha signal. The term “Alpha” is defined in the immediately preceding cellular assay description.

[3] = pH 6.5
[4] = MDCK-MDR1, pH 7.4, @ 5 μM, without elacridar, read-out: MDCK-MDR1 Papp(A-B)
[5] = MDCK-MDR1, pH 7.4, with elacridar 2 μM, @ 5 μM, with P-gp inhibitor elacridar (2 μM), read-out: MDCK-MDR1 P^eapp(A-B)

## Cc1nc2cnc3[nH]ccc3c2n1[C@H]1CC[C@H](CC#N)CC1 [A]
[1]; Time = 0.5 h
  Plasma Concentration After p.o. Dosing, Mean: 347.0 ng/mL
[1]; Time = 2 h
  Plasma Concentration After p.o. Dosing, Mean: 69.1 ng/mL
[1]; Time = 4 h
  Colon Concentration After p.o. Dosing, Mean: 895.0 ng/g
  Plasma Concentration After p.o. Dosing, Mean: 84.5 ng/mL
[2]
  Papp A→B: 22 ×10⁻⁶ cm/s
P-gp (MDR1); [4]
  Papp A→B at 60 min, 5 μM: 1.3 ×10⁻⁶ cm/s
P-gp (MDR1); @ 5 μM
  Papp B→A at 60 min, 5 μM: 55.3 ×10⁻⁶ cm/s
P-gp (MDR1)
  efflux ratio at 60 min, 5 μM: 43
physchem; pH 6.5, fassif
  solubility: > 400 µM
physchem; simulated gastric fluid
  solubility: > 400 µM

## N#CC[C@H]1CC[C@H](n2c(CO)nc3cnc4[nH]ccc4c32)CC1 [B]
[1]; Time = 0.5 h
  Plasma Concentration After p.o. Dosing, Mean: 352.7 ng/mL
[1]; Time = 2 h
  Plasma Concentration After p.o. Dosing, Mean: 66.3 ng/mL
[1]; Time = 4 h
  Colon Concentration After p.o. Dosing, Mean: 6076.7 ng/g
  Plasma Concentration After p.o. Dosing, Mean: 11.3 ng/mL
[2]
  Papp A→B: 1.7 ×10⁻⁶ cm/s
P-gp (MDR1); [4]
  Papp A→B at 60 min, 5 μM: 0.4 ×10⁻⁶ cm/s
P-gp (MDR1); @ 5 μM
  Papp B→A at 60 min, 5 μM: 23.5 ×10⁻⁶ cm/s
P-gp (MDR1)
  efflux ratio at 60 min, 5 μM: 59
physchem; pH 6.5, fassif
  solubility: 75 µM (≈ 23.2 µg/mL)
physchem; simulated gastric fluid
  solubility: > 400 µM

## N#CC[C@H]1CC[C@H](n2c(CC(=O)Nc3cc[nH]n3)nc3cnc4[nH]ccc4c32)CC1 [Ex. 11, 2-(1-((1r,4r)-4-(Cyanomethyl)cyclohexyl)-1,6-dihydroimidazo[4,5-d]pyrrolo[2,3-b]pyridin-2-yl)-N-(1H-pyrazol-3-yl)acetamide]
JAK1-JH1JH2
  IC50: 0.4 nM
JAK3-JH1JH2
  IC50: 30.3 nM
Tyk2-JH1JH2
  IC50: 1.5 nM
IL-2 pSTAT5 (JAK1/JAK3)
  IC50: 49.1 nM
IFNα pSTAT4 (JAK1/TYK2)
  IC50: 96.5 nM
P-gp (MDR1); [5]
  Papp A→B at 60 min, 5 μM: 0.8 ×10⁻⁶ cm/s
[3]
  SIF solubility: >400 µM

## Cn1cc(NC(=O)Cc2nc3cnc4[nH]ccc4c3n2[C@H]2CC[C@H](CC#N)CC2)cn1 [Ex. 9, 2-(1-((1r,4r)-4-(Cyanomethyl)cyclohexyl)-1,6-dihydroimidazo[4,5-d]pyrrolo[2,3-b]pyridin-2-yl)-N-(1-methyl-1H-pyrazol-4-yl)acetamide]
JAK1-JH1JH2
  IC50: 0.2 nM
JAK3-JH1JH2
  IC50: 79.9 nM
Tyk2-JH1JH2
  IC50: 4.7 nM
IL-2 pSTAT5 (JAK1/JAK3)
  IC50: 11.2 nM
IFNα pSTAT4 (JAK1/TYK2)
  IC50: 35.9 nM
P-gp (MDR1); [5]
  Papp A→B at 60 min, 5 μM: 0.6 ×10⁻⁶ cm/s
[3]
  SIF solubility: >400 µM
